Common to all, as to test: NCI-60 cell line screen, 48 h
Assay [1] has as its system OVCAR-3 ovarian.
For assay [2], the system named is OVCAR-8 ovarian.
In assay [3] the test system is LOX IMVI melanoma.
The test system of assay [4] is A498 renal.
Assay [5] has as its system CCRF-CEM leukemia.
The subject of assay [6] is HOP-62 NSCLC.
For assay [7], the system named is SN12C renal.
For assay [8], the system named is NCI-H226 lung.

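48-hour exposure; five concentrations; linearly interpolated endpoints. Here, GI50 denotes the concentration required for 50% inhibition of growth. TGI denotes the concentration required for complete inhibition of growth.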

The source of these data is PubChem BioAssay (NCI).

Regarding `O=C(O)CCSC(=O)Nc1ccc([N+](=O)[O-])cc1`, the TGI in assay [1], in assay [2], in assay [3], in assay [4], in assay [5] and in assay [6] was greater than 100 µM each time. The same molecule displayed a TGI in assay [7] greater than 100 µM.
`Cn1c2ccccc2c2ccc3c(c21)C(=O)c1ccccc1C3=O`: the TGI was 26.8 µM in assay [1]; 61.6 µM in assay [2]; greater than 100 µM in assay [8]; 29.4 µM in assay [3]; 13.1 µM in assay [5]; 45.5 µM in assay [6]. In addition, the TGI in assay [7] stood at 73.1 µM.
As to `O=C1c2ccccc2C(=O)N1CCc1ncc[nH]1`, the TGI in assay [1], in assay [2], in assay [3], in assay [5] and in assay [7] was greater than 100 µM throughout.
For the molecule `O=C(CC1(O)C(=O)Nc2ccccc21)c1ccncc1` (stereo unspecified), the TGI in assay [8], in assay [3], in assay [4], in assay [5] and in assay [7] was greater than 100 µM each time.
As for `Nc1cccc(S(=O)(=O)NCC(=O)O)c1`, the TGI in assay [1], in assay [2], in assay [8], in assay [3], in assay [5] and in assay [6] was greater than 100 µM each time. Further, in assay [7], the TGI was greater than 100 µM.
As for `C[C@@H]1OC(=O)N2CCCC(=C3SCCCS3)C12` (stereo partly specified), the TGI in assay [1], in assay [2], in assay [8], in assay [3], in assay [4] and in assay [5] was greater than 100 µM each time. The TGI in assay [7] was greater than 100 µM.
For `CCN(CC)C(c1ccc(N(C)C)cc1)C(c1ccc(N(C)C)cc1)N(CC)CC` (stereo unspecified), the TGI in assay [1], in assay [2], in assay [8], in assay [4], in assay [5] and in assay [6] was greater than 73 µM throughout. The molecule further returned a TGI in assay [7] greater than 73 µM.
For the molecule `O=C(CC1(O)C(=O)Nc2c(Cl)ccc(Cl)c21)c1ccc(F)cc1` (stereo unspecified), the TGI in assay [1] is greater than 100 µM; in assay [2] it was greater than 100 µM; in assay [8], 79.6 µM; in assay [3] it was greater than 100 µM; in assay [5], greater than 100 µM; in assay [6], greater than 100 µM. The molecule also showed a TGI in assay [7] greater than 100 µM.
`O=c1cc(-c2ccccc2)oc2cc(OC/C(=N/O)c3ccccc3)ccc12`: the GI50 was 12.8 µM in assay [1]; 32.8 µM in assay [2]; 23.5 µM in assay [8]; 30.5 µM in assay [3]; 22.4 µM in assay [6]; 10.9 µM in assay [7]. Further, the TGI in assay [1] is greater than 50 µM; in assay [2], greater than 50 µM; in assay [8], greater than 50 µM; in assay [3], greater than 50 µM; in assay [6], greater than 50 µM; in assay [7], 44.6 µM.
For `Cc1cc(N(CCC#N)CCC#N)ccc1/C=C1\N=C(c2cc([N+](=O)[O-])ccc2Cl)N(c2cccc(Cl)c2)C1=O`, the TGI in assay [1], in assay [2], in assay [8], in assay [4], in assay [5] and in assay [6] was greater than 100 µM in each case. This molecule returned a TGI in assay [7] greater than 100 µM.
Take `O=C(O)C(CS)Nc1c2ccccc2nc2ccccc12` (stereo unspecified): the TGI in assay [1], in assay [2], in assay [8], in assay [3], in assay [5] and in assay [7] was greater than 100 µM throughout.
Consider `CNC(=O)C1CCc2nnc(-c3ccccc3)n21` (stereo unspecified), for which the TGI in assay [1], in assay [8], in assay [4], in assay [5], in assay [6] and in assay [7] was greater than 100 µM each time.
Regarding `O=C(N/C(=C\c1cccc([N+](=O)[O-])c1)c1nc2ccc([N+](=O)[O-])cc2[nH]1)c1ccccc1`, the TGI is greater than 100 µM in assay [1], greater than 100 µM in assay [2], 87.6 µM in assay [5] and greater than 100 µM in assay [7].
Consider `CC(C)(CO)N1CCN(C(=S)Nc2ccccc2)CC1`, for which the TGI in assay [1], in assay [2], in assay [8], in assay [3], in assay [4] and in assay [6] was greater than 100 µM each time. The molecule also showed a TGI in assay [7] greater than 100 µM.
Consider `O=C(O)/C=C(\c1nc2ccc([N+](=O)[O-])cc2[nH]1)c1cc(Cl)ccc1O`, for which the GI50 was 3.28 µM in assay [2]; 2.32 µM in assay [8]; 2.41 µM in assay [3]; 2.46 µM in assay [4]; 2.51 µM in assay [5]; 3.55 µM in assay [6]. Besides, the GI50 in assay [7] is 2.71 µM. The TGI is greater than 100 µM in assay [2]; 46.4 µM in assay [8]; 11.1 µM in assay [3]; 8.7 µM in assay [4]; 12.7 µM in assay [5]; 28.3 µM in assay [6]. Further, the TGI in assay [7] came out at 33.8 µM.
In the case of `COc1cc(C(=O)CBr)c(OC)cc1C`, the TGI in assay [2], in assay [8], in assay [3], in assay [4], in assay [5] and in assay [6] was greater than 100 µM each time. The TGI in assay [7] is greater than 100 µM.
As for `CC(C)(C)c1cc(CCC(=O)Nc2ccc(Cl)cc2)nc(NC#N)n1`, the TGI in assay [1], in assay [2], in assay [8], in assay [3], in assay [5] and in assay [6] was greater than 100 µM each time.
